Experiments:
[1] = molecular target: Vascular endothelial growth factor receptor 2 (Homo sapiens, UniProt P35968); test: VEGFR ADP GLO Assay
Protocol: Assay Procedure:Step 1. Dispensing inhibitors/controls: Using Echo, dispense 10 nL/well compound serial dilutions in DMSO to columns 1-22 (in 384-well plates) or columns 1-44 (in 1536-well plates). Dilution series=11 pt, 3-fold dilutions. The top compound concentration in the source plate is 4 mM. The top compound concentration in the assay plate is 10 uM. Using Echo, dispense 10 nl/well DMSO to column 23 (in 384-well plates) or columns 45-47 (in 1536-well plates). These wells will serve as negative control wells Using Echo, dispense 10 nl/well 400 uM TAK-593 in DMSO to column 24 (in 384-well plates) or column 48 (in 1536-well plates). The final concentration of TAK-593 in the assay should be 1 uM. These wells will serve as positive control wells.Step 2. Pre-incubation of inhibitors with kinase: Add 2 μL/well 2× kinase solution. Centrifuge at 1000 rpm for 1 min. Incubate at room temperature for 30 min.Step 3. Kinase cascade reaction: Add 2 μL/well 2× substrate/ATP solution to initiate kinase reactions. Centrifuge at 1000 rpm for 1 min. Incubate at room temperature for 180 min.Final concentrations of components in the assay:[VEGFR2]=5 nM;[ATP]=1.2 mM;[Srctide]=1 mg/mL;[DMSO] G; 1%.Step 4. Quench: Add 2 uL/well ADP Glo Reagent+0.05% CHAPS. […] Centrifuge at 1000 rpm for 1 min; Incubate at room temperature for 1 hour; Read Luminescence on a plate reader.

[2] = molecular target: Platelet-derived growth factor receptor beta (Homo sapiens, UniProt P09619); test: PDGFRβ HTRF Assay
Platelet-derived growth factor receptor beta, sequence (P09619 whole entry): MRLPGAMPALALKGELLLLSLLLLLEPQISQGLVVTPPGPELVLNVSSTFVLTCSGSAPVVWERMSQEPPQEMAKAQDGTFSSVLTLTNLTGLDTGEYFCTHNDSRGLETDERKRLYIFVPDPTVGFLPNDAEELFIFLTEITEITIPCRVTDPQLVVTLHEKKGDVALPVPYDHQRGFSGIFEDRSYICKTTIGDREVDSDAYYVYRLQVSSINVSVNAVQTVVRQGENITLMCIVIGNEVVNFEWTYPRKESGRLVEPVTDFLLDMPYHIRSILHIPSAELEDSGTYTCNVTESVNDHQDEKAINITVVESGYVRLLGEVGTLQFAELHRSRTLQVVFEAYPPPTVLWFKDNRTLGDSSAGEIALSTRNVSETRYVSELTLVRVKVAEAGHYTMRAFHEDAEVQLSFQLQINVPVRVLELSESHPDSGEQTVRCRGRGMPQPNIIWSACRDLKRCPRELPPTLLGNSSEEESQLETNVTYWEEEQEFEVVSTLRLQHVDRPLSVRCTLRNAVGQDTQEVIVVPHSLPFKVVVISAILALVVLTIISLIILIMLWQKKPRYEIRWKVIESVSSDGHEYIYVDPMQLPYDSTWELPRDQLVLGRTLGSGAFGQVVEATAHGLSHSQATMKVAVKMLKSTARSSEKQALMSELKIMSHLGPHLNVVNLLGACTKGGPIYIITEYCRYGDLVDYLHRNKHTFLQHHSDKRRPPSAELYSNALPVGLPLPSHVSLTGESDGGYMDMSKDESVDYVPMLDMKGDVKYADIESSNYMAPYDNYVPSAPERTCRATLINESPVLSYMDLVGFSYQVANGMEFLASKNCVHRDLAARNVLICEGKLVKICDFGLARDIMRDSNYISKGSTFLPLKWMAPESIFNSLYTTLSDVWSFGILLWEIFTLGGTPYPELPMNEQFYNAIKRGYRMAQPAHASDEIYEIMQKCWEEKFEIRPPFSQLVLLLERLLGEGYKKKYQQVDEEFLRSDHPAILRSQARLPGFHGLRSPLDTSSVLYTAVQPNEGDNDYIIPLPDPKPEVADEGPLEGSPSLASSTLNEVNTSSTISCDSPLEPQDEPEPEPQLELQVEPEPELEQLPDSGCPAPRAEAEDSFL
Protocol: Stock Solutions:Assay buffer stock solution, contains 50 mM Hepes, 10 mM MgCl2, 1 mM EGTA, and 0.01% Brij-35, 0.01% ovalbumin, 2 mM DTT at pH 7.5, in molecular biology grade water. […] Store at −80° C. in aliquots.TK-biotin peptide, 0.5 μM in molecular biology grade water, store at −20° C. in aliquots.ATP, 100 mM in molecular biology grade water, store at −20° C. in aliquots.HTRF KinEASE-TK kit: Allow the contents of the Cisbio kit to warm up to room temperature before use. This kit contains HTRF detection buffer, TK-Antibody labeled with Eu3+-cryptate, TK-substrate biotin and Streptavidin-XL665.TK Substrate-Biotin, reconstitute 500 μg lyopholized with 574 μL molecular biology grade water to prepare a 500 μM stock; After use, aliquot the rest and store at −20° C.TK Antibody-Cryptate, reconstitute lyophilized with 1 mL of molecular biology grade water (100× solution) then add 99 mL detection buffer to prepare a ready to use TK-antibody-cryptate solution; the concentration of the TK-antibody-cryptate reagent is not known.

Vascular endothelial growth factor receptor 2, sequence (P35968 whole entry): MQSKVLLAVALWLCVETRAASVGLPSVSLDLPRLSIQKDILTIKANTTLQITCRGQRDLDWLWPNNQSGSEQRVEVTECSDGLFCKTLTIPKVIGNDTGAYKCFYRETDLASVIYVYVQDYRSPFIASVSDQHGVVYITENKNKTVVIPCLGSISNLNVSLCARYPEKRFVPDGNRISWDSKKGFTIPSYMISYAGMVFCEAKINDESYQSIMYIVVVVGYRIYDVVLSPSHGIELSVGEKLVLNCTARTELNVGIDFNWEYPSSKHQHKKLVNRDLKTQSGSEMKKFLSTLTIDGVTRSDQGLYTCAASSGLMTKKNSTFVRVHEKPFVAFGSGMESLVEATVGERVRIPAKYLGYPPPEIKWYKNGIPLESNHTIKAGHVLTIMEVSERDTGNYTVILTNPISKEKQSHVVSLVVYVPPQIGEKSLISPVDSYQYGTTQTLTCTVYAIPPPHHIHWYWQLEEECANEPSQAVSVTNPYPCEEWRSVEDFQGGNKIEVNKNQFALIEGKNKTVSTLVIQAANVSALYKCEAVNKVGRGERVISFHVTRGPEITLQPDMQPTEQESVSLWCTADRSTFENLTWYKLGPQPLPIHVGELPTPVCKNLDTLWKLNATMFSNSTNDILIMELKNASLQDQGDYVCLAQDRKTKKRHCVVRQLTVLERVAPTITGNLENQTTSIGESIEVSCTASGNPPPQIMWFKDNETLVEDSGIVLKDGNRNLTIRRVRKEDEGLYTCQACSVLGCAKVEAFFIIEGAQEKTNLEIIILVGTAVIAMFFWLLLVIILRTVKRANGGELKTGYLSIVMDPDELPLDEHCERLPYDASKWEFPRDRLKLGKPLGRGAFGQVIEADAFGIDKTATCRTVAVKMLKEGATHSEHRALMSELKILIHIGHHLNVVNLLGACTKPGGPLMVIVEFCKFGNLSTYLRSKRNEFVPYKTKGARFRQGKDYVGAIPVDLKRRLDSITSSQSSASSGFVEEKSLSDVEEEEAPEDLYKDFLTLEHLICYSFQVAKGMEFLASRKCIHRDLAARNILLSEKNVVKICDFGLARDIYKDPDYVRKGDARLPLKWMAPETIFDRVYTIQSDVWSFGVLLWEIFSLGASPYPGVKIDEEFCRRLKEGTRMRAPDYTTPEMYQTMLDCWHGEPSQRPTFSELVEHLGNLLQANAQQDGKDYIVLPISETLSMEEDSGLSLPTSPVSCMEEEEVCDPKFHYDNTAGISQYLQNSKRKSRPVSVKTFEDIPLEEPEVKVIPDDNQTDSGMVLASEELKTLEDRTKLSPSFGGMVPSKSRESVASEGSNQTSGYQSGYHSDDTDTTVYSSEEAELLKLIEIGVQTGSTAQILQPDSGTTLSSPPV

In the case of `CCOC1CN(CC(=O)Nc2cnc(C)c(NC(=O)c3cnn4cc(-c5cccnc5OC)sc34)c2)C1` [US20240109917, Example 401], the IC50 [1] is reported as > 7.5 µM and the IC50 [2] is reported as 0.3 nM.

Reference: BindingDB's records for patent US20240109917 (Actelion Pharmaceuticals, 2024)
